Data from US5948791A, “Quinoline derivatives for treating malaria” (Hoffmann-La Roche Inc., priority 1995, dated 1999).
Structures can show the parent of a compound that is named as a salt. Where two headings read alike, the source gives them in different places.

How the values were obtained:
[1] = system: Plasmodium falciparum strain NF54; test: Growth inhibition of Plasmodium falciparum NF54 (chloroquine-sensitive) in vitro, [G-3H]-hypoxanthin incorporation; format: cell-based; conditions: chloroquine-sensitive strain NF54, 72 h, read-out: IC50 for P. falciparum NF54
Source text: (§1) The ratio of the growth inhibition of a strain which is especially resistant to chloroquine and of a strain which is sensitive to chloroquine gives as the "resistance index" a measurement for the absence of a cross-resistance with chloroquine. Since, for all novel compounds the resistance index lies between 0.7 and 2.5, they inhibit the growth of sensitive as well as resistant strains of the malaria pathogen equally effectively. They are accordingly also suitable for the prophylaxis of a malaria disease and also for the treatment of a malaria disease even when chloroquine is ineffective. The good activity against malaria pathogens is also shown in animal experiments. The effective doses measured after oral and subcutaneous administration to mice infected with malaria pathogens are shown in Table 2 hereinafter.
(§2) Test method for the determination of the activity against Plasmodium falciparum in vitro
(§3) The preparations are tested on intraerythrocytary stages of Plasmodium falciparum from asynchronous cultures according to the method of Desjardin et al. (Desjardins, R. E. et al: Quantitative assessment of antimalarial activity in vitro by a semiautomated microdilution technique. Antimicrob. Agents Chemother. 16, 710-718, (1979)).
(§4) The culture medium consists of RPMI 1640 with the addition of 25 mM HEPES, 25 mM NaHCO3, 100 μg/ml neomycin and […] (A^+). Human-A^+ erythrocytes are used as the Plasmodium falciparum host cells. The parasites are maintained at 37° C. in an atmosphere of 3% O2, 4% CO2, 93% N2 and 95% relative humidity.
(§5) In order to determine the activity, the preparations are dissolved in DMSO, pre-diluted in the culture medium to a suitable starting concentration and subsequently titrated-out on to microtitre plates in the 2nd stage over 6-7 steps. After the addition of the parasite culture (0.7% parasitemia in 2.5% erythrocyte suspension) the test plates are incubated under the conditions given above for 72 h. The parasite growth in the different preparation concentrations is determined using [G-^3 H]-hypoxanthin incorporation compared to untreated control cultures on the same test plates. The 50% growth inhibition (IC50) is calculated according to logit regression analysis from the resulting dosage-activity curve.
(§6) The preparations are tested on at least one chloroquine-resistant and one chloroquine-sensitive Plasmodium falciparum strain. Additional sensitive and resistant strains are included for further characterization.

Plasmodium falciparum K1 = test: Growth inhibition of Plasmodium falciparum K1 (chloroquine-resistant) in vitro, [G-3H]-hypoxanthin incorporation; format: cell-based, Plasmodium falciparum (strain K1); conditions: for IC50: Plasmodium falciparum, K1, 72 h, read-out: IC50 for P. falciparum K1; for Resistance index: ratio of the IC50 for K1 and the IC50 for NF54
Source text: as §1, §2, §3, §4, §5, §6

Plasmodium berghei = test: animal or person; format: in vivo, Plasmodium berghei (strain ANKA) in mice; conditions: for inhibition in vivo at 10 mg/kg: Plasmodium berghei, mice, blood smears 48 h after treatment
Experimental: Test method for the determination of the activity against Plasmodium berghei in vivo
The preparations are tested on mice infected with malaria pathogens (Plasmodium berghei). Male albino mice (IBM:MORO(SPF), FUELLINSDORF) weighing about 25 g are used as the test animals. They are kept in climatized rooms at 21-22° C. in groups of 5 animals per cage. They receive ad libitum a diet feed with a low PABA content (NAFAG FUTTER " No. 9009 PAB-45, PABA content 45 mg/kg) and drinking water. On the first day of the test (D0) the test animals are infected with Plasmodium berghei (strain ANKA). For this there is used heparinized blood of a donor mouse with about 30% parasitemia, which is diluted with physiological saline such that it contains 10^8 parasitized erythrocytes per ml. 0.2 ml of this suspension is injected intravenously (i.v.) into the mice to be treated and into the control mice.
The substances to be tested are dissolved or suspended in distilled water or in a mixture of 7% Tween 80, 3% alcohol (96%) and water. Usually, 0.25 ml of this solution or suspension is administered once subcutaneously and perorally to groups of 5 test animals. Treatment is effected 24 hours after the infection. 10 control animals are treated in the same manner with solvent or suspension medium per test.
All substances are tested in a first test in a single dosage of 10 mg/kg. Only those substances which in this test (10 mg/kg) have shown a parasitaemia reduction of 90% are used for the titration. Suitable dilutions of the test substance can be used to obtain an accurate titration of the activity.
48 hours after the treatment (D+3) blood smears are prepared from all animals using blood from tail veins and are stained with giemsa. […] The difference in the average values of the infection rates of control group (100%) and treated groups is calculated and expressed as a percentage reduction (GI%). The ED50 or ED90 is determined mathematically by means of the JMP programme (nonlinear fit). The ED50 (ED90) in mg/kg is that dose which after single administration reduces the average erythrocyte infection rate by 50% (90%) in comparison to the control group.

[2] = po, single peroral dose of 10 mg/kg, read-out: Growth inhibition in % after po administration (GI%, percentage reduction of the parasitemia)
[3] = sc, single subcutaneous dose of 10 mg/kg, read-out: Growth inhibition in % after sc administration (GI%, percentage reduction of the parasitemia)

Structure (SMILES) | IC50 [1] | IC50 (Plasmodium falciparum K1) | Resistance index (Plasmodium falciparum K1) | inhibition in vivo at 10 mg/kg (Plasmodium berghei; [2]) | Growth inhibition after sc administration: entry "toxic" (Plasmodium berghei; mouse, in vivo, sc, 10 mg/kg) | inhibition in vivo at 10 mg/kg (Plasmodium berghei; [3])
Cl.Cl.Fc1cccc(F)c1CN[C@H]1CC[C@@H](Nc2ccnc3cc(Cl)ccc23)CC1 [Example 19, cis-N1-(7-Chloro-quinolin-4-yl)-N4-(2,6-difluoro-benzyl)-cyclohexane-1,4-diamine dihydrochloride] | 0.0049 mg/L | 0.0143 mg/L | 2.9 | 21% | toxic | 
Clc1ccc2c(N[C@H]3CC[C@@H](NCCCc4ccccc4)CC3)ccnc2c1 [Example 20, cis-N1-(7-Chloro-quinolin-4-yl)-N4-(3-phenyl-propyl)-cyclohexane-1,4-diamine dihydrochloride] | 0.0044 mg/L | 0.0108 mg/L | 2.5 | 94% |  | 98%
COc1ccc(CN[C@H]2CC[C@@H](Nc3ccnc4cc(Cl)ccc34)CC2)cc1.Cl.Cl [Example 21, cis-N1-(7-Chloro-quinolin-4-yl)-N4-(4-methoxy-benzyl)-cyclohexane-1,4-diamine dihydrochloride] | 0.0051 mg/L | 0.0093 mg/L | 1.8 | 99.9% |  | 100%
Cl.Cl.O=[N+]([O-])c1cccc(Cl)c1CN[C@H]1CC[C@@H](Nc2ccnc3cc(Cl)ccc23)CC1 [Example 22, cis-N1-(2-Chloro-6-nitro-benzyl)-N4-(7-chloro-quinolin-4-yl)-cyclohexane-1,4-diamine dihydrochloride] | 0.0116 mg/L | 0.0189 mg/L | 1.6 | 42% |  | 84%
CC(C)(CNc1ccnc2cc(Cl)ccc12)NCc1cc(Cl)cc(Cl)c1.Cl.Cl [Example 23, N1-(7-Chloro-quinolin-4-yl)-N2-(3,5-dichloro-benzyl)-2-methylpropane-1,2-diamine dihydrochloride] | 0.0296 mg/L | 0.0325 mg/L | 1.1 | 97% |  | 98%
CC(C)(CNc1ccnc2cc(Cl)ccc12)NCc1ccccc1 [Example 24, N1-(7-Chloro-quinolin-4-yl)-N2-(benzyl)-2-methyl-propane-1,2-diamine dihydrochloride] | 0.0079 mg/L | 0.0132 mg/L | 1.7 | 81% |  | 95%
CC(C)(CNc1ccnc2cc(Cl)ccc12)NCc1ccc(Cl)cc1 [Example 25, N1-(7-Chloro-quinolin-4-yl)-N2-(4-chloro-benzyl)-2-methyl-propane-1,2-diamine dihydrochloride] | 0.0173 mg/L | 0.0129 mg/L | 0.7 | 99.2% |  | 99.8%
CC(C)(CNc1ccnc2cc(Cl)ccc12)NCc1ccc(Cl)c(F)c1.Cl.Cl [Example 27, N1-(7-Chloro-quinolin-4-yl)-N2-(4-chloro-3-fluoro-benzyl)-2-methyl-propane-1,2-diamine dihydrochloride] | 0.016 mg/L | 0.0233 mg/L | 1.5 | 99% |  | 98%
CC(=O)O.CC(=O)O.CC(C)(CNc1ccnc2cc(Cl)ccc12)NCc1ccccc1O [Example 28, N1-(7-Chloro-quinolin-4-yl)-N2-(2-hydroxybenzyl)-2-methyl-propane-1,2-diamine diacetate] | 0.004 mg/L | 0.0107 mg/L | 2.7 | 79% |  | 96%
COc1ccc(CNC(C)(C)CNc2ccnc3cc(Cl)ccc23)c(O)c1.Cl.Cl [Example 29, N1-(7-Chloro-quinolin-4-yl)-N2-(2-hydroxy-4-methoxy-benzyl)-2-methyl-propane-1,2-diamine dihydrochloride] | 0.0077 mg/L | 0.0162 mg/L | 2.1 | 74% |  | 99%
COc1cccc(CNC(C)(C)CNc2ccnc3cc(Cl)ccc23)c1O.Cl.Cl [Example 30, N1-(7-Chloro-quinolin-4-yl)-N2-(2-hydroxy-3-methoxy-benzyl)-2-methyl-propane-1,2-diamine dihydrochloride] | 0.0067 mg/L | 0.0114 mg/L | 1.7 | 70% |  | 95%
COc1ccc(O)c(CNC(C)(C)CNc2ccnc3cc(Cl)ccc23)c1.Cl.Cl [Example 31, N1-(7-Chloro-quinolin-4-yl)-N2-(2-hydroxy-5-methoxy-benzyl)-2-methyl-propane-1,2-diamine dihydrochloride] | 0.0065 mg/L | 0.0099 mg/L | 1.5 | 39% |  | 98%
COc1cc(CNC(C)(C)CNc2ccnc3cc(Cl)ccc23)ccc1O.Cl.Cl [Example 33, N1-(7-Chloro-quinolin-4-yl)-N2-(4-hydroxy-3-methoxy-benzyl)-2-methyl-propane-1,2-diamine dihydrochloride] | 0.0063 mg/L | 0.0071 mg/L | 1.1 | 10% |  | 97%
COc1cc(CNC(C)(C)CNc2ccnc3cc(Cl)ccc23)cc(OC)c1.Cl.Cl [Example 40, N1-(7-Chloro-quinolin-4-yl)-N2-(3,5-dimethoxy-benzyl)-2-methyl-propane-1,2-diamine dihydrochloride] | 0.0036 mg/L | 0.0071 mg/L | 2.0 | 84% |  | 95%
CC(C)(CNc1ccnc2cc(Cl)ccc12)NCc1ccc(Oc2ccccc2)cc1.Cl.Cl [Example 43, N1-(7-Chloro-quinolin-4-yl)-N2-(4-phenoxy-benzyl)-2-methyl-propane-1,2-diamine dihydrochloride] | 0.016 mg/L | 0.0181 mg/L | 1.1 | 30% |  | 98%
CSc1ccc(CNC(C)(C)CNc2ccnc3cc(Cl)ccc23)cc1.Cl.Cl [Example 44, N1-(7-Chloro-quinolin-4-yl)-N2-(4-methylsulphanyl-benzyl)-2-methyl-propane-1,2-diamine dihydrochloride] | 0.0108 mg/L | 0.0154 mg/L | 1.4 | 98% |  | 99%
CN(C)c1ccc(CNC(C)(C)CNc2ccnc3cc(Cl)ccc23)cc1.Cl.Cl [Example 45, N1-(7-Chloro-quinolin-4-yl)-N2-(4-dimethylamino-benzyl)-2-methyl-propane-1,2-diamine dihydrochloride] | 0.0123 mg/L | 0.0125 mg/L | 1.0 | 98% |  | 97%
